Results from the kinase profiling compilation of Christmann-Franck et al. (2016).
Where “and” joins values, the source holds several entries; their conditions need not be identical. Identical values can stand only once.

Legend:
Experiment in all cases: Caliper, Mobility shift assay off-chip
[1] = target: AURKC (human) (UniProt Q9UQB9)
[2] = target: FER (human) (UniProt P16591)
[3] = target: CAMK4 (human) (UniProt Q16566)
[4] = target: SGK2 (human) (UniProt Q9HBY8)
[5] = target: TSSK1B (human) (UniProt Q9BXA7)
[6] = tested on: FLT3 (human), P36888 [D835Y]
[7] = target: TSSK2 (human) (UniProt Q96PF2)
[8] = target: AURKB (human) (UniProt Q96GD4)
[9] = target: FYN (human) (UniProt P06241); settings: compound 0.1 µM
[10] = target: CDK2 (human) (UniProt P24941)
[11] = target: FGFR4 (human) (UniProt P22455)
[12] = target: RPS6KA3 KD1 KD2 (human) (UniProt P51812)
[13] = target: MAPK13 (human) (UniProt O15264)
[14] = target: BTK (human) (UniProt Q06187)
[15] = target: PDGFRA (human) (UniProt P16234)
[16] = target: PRKCB2 (human) (UniProt P05771)
[17] = target: CAMK2G (human) (UniProt Q13555); settings: compound 1.0 µM
[18] = target: CAMK2D (human) (UniProt Q13557); settings: compound 1.0 µM
[19] = target: LYN (human) (UniProt P07948)
[20] = target: MAPK11 (human) (UniProt Q15759)
[21] = target: PRKG1 (human) (UniProt Q13976)
[22] = target: RPS6KA2 KD1 KD2 (human) (UniProt Q15349)
[23] = target: FGFR2 (human) (UniProt P21802)
[24] = target: RPS6KA5 KD1 KD2 (human) (UniProt O75582)
[25] = target: PRKCE (human) (UniProt Q02156)
[26] = target: AURKA (human) (UniProt O14965)
[27] = target: PRKD3 (human) (UniProt O94806)
[28] = target: EGFR (human) (UniProt P00533)
[29] = target: AKT1 (human) (UniProt P31749)
[30] = target: STK3 (human) (UniProt Q13188)
[31] = target: PRKCG (human) (UniProt P05129)
[32] = tested on: ABL1 (human), P00519 [Q252H]
[33] = target: MAPKAPK2 (human) (UniProt P49137)
[34] = target: PRKCH (human) (UniProt P24723)

Chain of PRKG1 (human) (Q13976 whole entry, looked up): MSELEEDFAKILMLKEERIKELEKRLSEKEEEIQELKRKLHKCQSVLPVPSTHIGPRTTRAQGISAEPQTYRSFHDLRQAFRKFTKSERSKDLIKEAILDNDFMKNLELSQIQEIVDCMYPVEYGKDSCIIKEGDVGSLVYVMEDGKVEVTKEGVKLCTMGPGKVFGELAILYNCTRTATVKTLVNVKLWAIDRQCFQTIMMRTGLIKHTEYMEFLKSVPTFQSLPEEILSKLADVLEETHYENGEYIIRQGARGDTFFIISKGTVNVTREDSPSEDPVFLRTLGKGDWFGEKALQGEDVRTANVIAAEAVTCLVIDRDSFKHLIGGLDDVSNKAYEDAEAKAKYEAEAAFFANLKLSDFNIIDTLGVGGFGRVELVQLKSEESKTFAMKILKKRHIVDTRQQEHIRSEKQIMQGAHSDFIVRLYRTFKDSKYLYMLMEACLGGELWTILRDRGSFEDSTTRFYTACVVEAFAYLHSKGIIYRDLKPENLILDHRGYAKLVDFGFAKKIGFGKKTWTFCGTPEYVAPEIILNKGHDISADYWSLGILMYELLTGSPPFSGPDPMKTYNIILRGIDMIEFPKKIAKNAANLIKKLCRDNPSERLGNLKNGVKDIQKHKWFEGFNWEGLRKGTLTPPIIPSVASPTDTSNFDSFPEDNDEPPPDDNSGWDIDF
Chain of AURKB (human) (Q96GD4 whole entry, looked up): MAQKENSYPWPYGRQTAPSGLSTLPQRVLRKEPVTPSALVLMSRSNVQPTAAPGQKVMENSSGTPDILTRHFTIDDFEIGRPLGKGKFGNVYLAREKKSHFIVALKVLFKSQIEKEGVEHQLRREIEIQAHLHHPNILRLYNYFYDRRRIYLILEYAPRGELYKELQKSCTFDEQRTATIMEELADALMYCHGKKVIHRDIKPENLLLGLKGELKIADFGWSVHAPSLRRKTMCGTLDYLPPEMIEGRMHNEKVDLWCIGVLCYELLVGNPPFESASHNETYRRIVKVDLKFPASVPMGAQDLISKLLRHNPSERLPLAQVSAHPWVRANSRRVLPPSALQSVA
Chain of LYN (human) (P07948 whole entry, looked up): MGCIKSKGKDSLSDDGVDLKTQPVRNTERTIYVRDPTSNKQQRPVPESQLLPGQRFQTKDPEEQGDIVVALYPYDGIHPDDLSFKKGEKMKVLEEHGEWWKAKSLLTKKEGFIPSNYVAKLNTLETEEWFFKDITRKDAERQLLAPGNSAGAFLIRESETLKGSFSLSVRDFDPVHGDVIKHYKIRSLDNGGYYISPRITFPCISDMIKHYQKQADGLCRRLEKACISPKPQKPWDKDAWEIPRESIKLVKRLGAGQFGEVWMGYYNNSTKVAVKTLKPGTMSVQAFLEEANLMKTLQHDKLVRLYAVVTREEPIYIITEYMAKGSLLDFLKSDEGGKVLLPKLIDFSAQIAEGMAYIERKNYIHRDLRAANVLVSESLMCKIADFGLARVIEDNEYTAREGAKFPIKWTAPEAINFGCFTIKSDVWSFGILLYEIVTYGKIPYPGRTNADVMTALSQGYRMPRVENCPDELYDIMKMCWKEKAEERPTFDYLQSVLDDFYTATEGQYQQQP
Chain of PRKD3 (human) (O94806 whole entry, looked up): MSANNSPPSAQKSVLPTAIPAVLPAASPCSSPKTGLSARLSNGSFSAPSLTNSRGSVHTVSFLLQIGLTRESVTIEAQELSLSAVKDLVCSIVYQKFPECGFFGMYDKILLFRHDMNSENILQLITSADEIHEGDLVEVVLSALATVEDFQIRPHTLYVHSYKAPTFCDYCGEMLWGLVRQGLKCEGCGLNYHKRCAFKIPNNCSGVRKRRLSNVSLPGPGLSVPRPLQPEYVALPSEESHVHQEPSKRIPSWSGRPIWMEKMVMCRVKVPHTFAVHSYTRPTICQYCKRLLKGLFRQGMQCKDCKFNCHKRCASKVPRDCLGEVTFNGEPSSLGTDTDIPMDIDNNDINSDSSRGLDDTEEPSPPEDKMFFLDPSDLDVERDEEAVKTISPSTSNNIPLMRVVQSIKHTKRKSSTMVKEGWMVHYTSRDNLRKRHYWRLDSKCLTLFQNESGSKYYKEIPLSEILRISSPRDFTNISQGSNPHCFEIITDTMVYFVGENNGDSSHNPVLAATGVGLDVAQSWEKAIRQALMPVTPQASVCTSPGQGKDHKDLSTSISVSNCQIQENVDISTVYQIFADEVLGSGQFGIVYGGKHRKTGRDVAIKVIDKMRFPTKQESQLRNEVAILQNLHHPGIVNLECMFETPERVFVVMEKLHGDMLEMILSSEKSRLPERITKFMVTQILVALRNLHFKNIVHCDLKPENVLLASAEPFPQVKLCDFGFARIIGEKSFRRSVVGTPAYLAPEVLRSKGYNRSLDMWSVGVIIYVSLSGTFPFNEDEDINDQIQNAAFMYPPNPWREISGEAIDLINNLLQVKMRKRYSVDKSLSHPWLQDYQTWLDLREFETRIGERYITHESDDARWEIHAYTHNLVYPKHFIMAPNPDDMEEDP
Chain of AURKA (human) (O14965 whole entry, looked up): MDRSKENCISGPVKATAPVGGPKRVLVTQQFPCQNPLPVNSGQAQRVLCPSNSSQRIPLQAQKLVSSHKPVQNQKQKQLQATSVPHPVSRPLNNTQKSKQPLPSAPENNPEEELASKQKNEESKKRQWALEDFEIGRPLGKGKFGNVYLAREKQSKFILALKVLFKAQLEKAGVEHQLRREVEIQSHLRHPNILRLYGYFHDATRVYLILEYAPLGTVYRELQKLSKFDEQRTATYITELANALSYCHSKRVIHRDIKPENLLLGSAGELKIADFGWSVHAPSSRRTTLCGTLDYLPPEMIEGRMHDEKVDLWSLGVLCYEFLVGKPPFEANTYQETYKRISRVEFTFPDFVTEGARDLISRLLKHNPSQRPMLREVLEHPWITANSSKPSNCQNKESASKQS
Chain of PRKCE (human) (Q02156 whole entry, looked up): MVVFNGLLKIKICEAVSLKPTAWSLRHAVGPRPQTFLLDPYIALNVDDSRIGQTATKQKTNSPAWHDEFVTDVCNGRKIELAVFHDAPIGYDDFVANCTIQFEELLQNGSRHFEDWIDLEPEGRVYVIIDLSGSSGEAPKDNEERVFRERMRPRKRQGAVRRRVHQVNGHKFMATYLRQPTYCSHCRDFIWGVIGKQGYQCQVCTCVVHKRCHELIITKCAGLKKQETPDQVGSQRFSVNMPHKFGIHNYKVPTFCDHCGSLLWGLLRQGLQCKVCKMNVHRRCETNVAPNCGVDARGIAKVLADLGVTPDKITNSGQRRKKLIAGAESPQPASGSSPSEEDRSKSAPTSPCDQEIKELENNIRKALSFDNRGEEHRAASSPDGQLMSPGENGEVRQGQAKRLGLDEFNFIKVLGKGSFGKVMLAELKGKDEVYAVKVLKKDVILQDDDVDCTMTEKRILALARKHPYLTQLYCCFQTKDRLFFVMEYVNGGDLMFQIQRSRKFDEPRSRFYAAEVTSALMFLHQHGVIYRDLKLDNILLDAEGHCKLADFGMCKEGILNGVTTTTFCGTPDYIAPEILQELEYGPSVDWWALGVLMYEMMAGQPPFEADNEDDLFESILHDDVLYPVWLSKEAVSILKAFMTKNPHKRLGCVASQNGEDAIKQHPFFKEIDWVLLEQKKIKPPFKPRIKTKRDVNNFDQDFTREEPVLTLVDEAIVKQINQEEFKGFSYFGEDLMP
Chain of STK3 (human) (Q13188 whole entry, looked up): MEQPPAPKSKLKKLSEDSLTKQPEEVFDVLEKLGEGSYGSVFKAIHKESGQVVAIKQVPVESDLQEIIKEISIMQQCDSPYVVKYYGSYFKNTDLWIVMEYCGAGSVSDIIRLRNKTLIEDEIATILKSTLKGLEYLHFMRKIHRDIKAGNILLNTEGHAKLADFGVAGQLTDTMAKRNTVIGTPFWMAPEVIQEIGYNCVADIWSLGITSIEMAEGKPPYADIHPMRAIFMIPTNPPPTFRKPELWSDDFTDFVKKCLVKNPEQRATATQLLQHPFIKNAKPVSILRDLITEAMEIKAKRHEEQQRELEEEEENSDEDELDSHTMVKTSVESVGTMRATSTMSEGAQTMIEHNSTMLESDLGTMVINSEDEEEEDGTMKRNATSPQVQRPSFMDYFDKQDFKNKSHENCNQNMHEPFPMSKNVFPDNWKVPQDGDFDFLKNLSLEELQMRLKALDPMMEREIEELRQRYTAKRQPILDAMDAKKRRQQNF

Compound: CN(c1ccc2ccc3ncc(-c4cnn(C)c4)cc3c(=O)c2c1)S(=O)(=O)NCc1ccccn1
- inhibition ([1]; compound 0.1 µM): 31.7%
- inhibition ([1]; compound 1.0 µM): 75.8%
- inhibition ([2]; compound 0.1 µM): 24.1%
- inhibition ([2]; compound 1.0 µM): -2.5%
- inhibition ([3]; compound 0.1 µM): -0.2%
- inhibition ([3]; compound 1.0 µM): 8%
- inhibition ([4]; compound 0.1 µM): 1.8%
- inhibition ([4]; compound 1.0 µM): 3.7%
- inhibition ([5]; compound 0.1 µM): -4.8%
- inhibition ([5]; compound 1.0 µM): 8.1%
- inhibition ([6]; compound 0.1 µM): 49.8%
- inhibition ([6]; compound 1.0 µM): 86.5%
- inhibition ([7]; compound 0.1 µM): -3.3%
- inhibition ([7]; compound 1.0 µM): -0.8%
- inhibition ([8]; compound 0.1 µM): 37.1%
- inhibition ([8]; compound 1.0 µM): 80.7%
- inhibition [9]: -0.3%
- inhibition ([10]; compound 0.1 µM): 3.1%
- inhibition ([10]; compound 1.0 µM): 4.8%
- inhibition ([11]; compound 0.1 µM): 8.9%
- inhibition ([11]; compound 1.0 µM): 22.4%
- inhibition ([12]; compound 0.1 µM): -1.9%
- inhibition ([12]; compound 1.0 µM): 12.9%
- inhibition ([13]; compound 0.1 µM): -0.3%
- inhibition ([13]; compound 1.0 µM): 9.8%
- inhibition ([14]; compound 0.1 µM): 4.7%
- inhibition ([14]; compound 1.0 µM): 4.9%
- inhibition ([15]; compound 0.1 µM): -13.5%
- inhibition ([15]; compound 1.0 µM): 31.2%
- inhibition ([16]; compound 0.1 µM): 2.8%
- inhibition ([16]; compound 1.0 µM): 8.1%
- inhibition [17]: 0.4%
- inhibition [18]: -1.3%
- inhibition ([19]; compound 0.1 µM): 2.5%
- inhibition ([19]; compound 1.0 µM): 25.1%
- inhibition ([20]; compound 0.1 µM): -0.1%
- inhibition ([20]; compound 1.0 µM): -5.4%
- inhibition ([21]; compound 0.1 µM): 8.1% and 4.1%
- inhibition ([21]; compound 1.0 µM): 11.8% and 4.9%
- inhibition ([22]; compound 0.1 µM): -5.9%
- inhibition ([22]; compound 1.0 µM): 9.6%
- inhibition ([23]; compound 0.1 µM): 29.4%
- inhibition ([23]; compound 1.0 µM): 76.6%
- inhibition ([24]; compound 0.1 µM): -3.5%
- inhibition ([24]; compound 1.0 µM): 8.1%
- inhibition ([25]; compound 0.1 µM): 8.8%
- inhibition ([25]; compound 1.0 µM): 3.9%
- inhibition ([26]; compound 0.1 µM): 39.7%
- inhibition ([26]; compound 1.0 µM): 87.5%
- inhibition ([27]; compound 0.1 µM): 8%
- inhibition ([27]; compound 1.0 µM): 9.4%
- inhibition ([28]; compound 0.1 µM): -4.8%
- inhibition ([28]; compound 1.0 µM): 7%
- inhibition ([29]; compound 0.1 µM): -4.1%
- inhibition ([29]; compound 1.0 µM): 6.2%
- inhibition ([30]; compound 0.1 µM): -6%
- inhibition ([30]; compound 1.0 µM): 7.6%
- inhibition ([31]; compound 0.1 µM): -8.6%
- inhibition ([31]; compound 1.0 µM): -6.9%
- inhibition ([32]; compound 0.1 µM): 6.9%
- inhibition ([32]; compound 1.0 µM): 51.8%
- inhibition ([33]; compound 0.1 µM): -0.4%
- inhibition ([33]; compound 1.0 µM): 2.9%
- inhibition ([34]; compound 0.1 µM): 10%
- inhibition ([34]; compound 1.0 µM): 3.2%
